Literature values, collected in patent publication US20030109682A1, “Maytansines and maytansine conjugates” (priority 2001, published 2003).

Key:
[1] = tested on: acute lymphocytic leukemia, breast carcinoma, ovarian cancer, thymoma, melanoma, and non-small scale lung cancer; conditions: Phase I, patients with acute lymphocytic leukemia
[2] = Phase II trials

For `COc1cc2cc(c1Cl)N(C)C(=O)C[C@H](OC(=O)[C@H](C)N(C)C(C)=O)[C@]1(C)O[C@H]1[C@H](C)[C@@H]1C[C@@](O)(NC(=O)O1)[C@H](OC)/C=C/C=C(\C)C2` [Maytansine], the clinical response [1] is given as “encouraging responses”, the gastrointestinal toxicity [2] is given as “manageable gastrointentinal toxicity” and the “neurotoxicity at the site of administration” value [2] is given as “pain of such magnitude as to prevent further administration”.
